A short description of data set [1]: Isocratic HPLC Log P. The note with it: for Isocratic Log P: isocratic method, no details given.
From the text: (§1) Isocratic data, measured at certain eluent compositions (typically as log k′x, for a given eluent composition X), can be used to calculate Log P data.
Data set [2] is described as follows: Gradient HPLC Log P determination from retention time (new method).
Method: (§2) An evaporated light scattering detector (Richard Scientific) and a platform LC mass spectrometer (Micromass) were used as detectors.
(§3) The mobile phase was a binary gradient of methanol/water. The stationary phase was a 4.6×50 mm column packed with 5 micron ODS-AQ. The injection size was 5 μL. The mobile phase gradient was adjusted to obtain a Log P nearly equal to the retention time on the HPLC column.
(§4) After 6.1 minutes, the column was set to re-equilibrate.
(§5) Retention times (X), shake flask log P (Y), slope and intercept from the above plot were used to calculate log P for these standards.
(§6) When log P was plotted versus the log of the capacity factor K for these standards, an following exponential curve was obtained, as shown in FIG. 3.
(§7) Using this exponential equation and HPLC retention times of these standards, Log P and Log K were calculated and compared with the retention times and literature Log P values.
For data set [3] the following is noted: cited from earlier work.
A short description of data set [4]: physchem.
Method: as §2, §3, §4, §5, §6, §7
Data set [5] is described as follows: physchem. The source holds these as a separate data set.
From the text: as §1
The mark [6] stands for this setting: New Method Calc. Log P Y = 1.009X + 0.029, calculated from average gradient HPLC retention time X (ODS-AQ 4.6×50 mm, methanol/water), linear fit.
Where [7] appears, read: Log P calc. by slope, calculated from Log K (capacity factor) with exponential equation Y=0.6972e^1.5966X.
Where [8] appears, read: shake flask Log P values (lit.), Table 2.
The mark [9] stands for this setting: shake flask, literature, Table 3.
Setting [10] is: shake flask, literature, Table 4.
Setting [11] is: New Method Calc. Log P Y = 1.009X + 0.029.

Molecules are shown by their SMILES. Where two headings read alike, the source gives them in different places.

One may read the chromatographic logP as lipophilicity estimated from chromatographic retention.

For `O=c1cc[nH]c(=O)[nH]1` [standard 1, uracil], the chromatographic logP in data set [1] was -1.05; in data set [2] (setting [6]), 0.32.

For `NC(=O)c1ccccc1` [standard 2, benzamide], the chromatographic logP is 0.41 in data set [1], 0.58 in data set [2] (setting [7]) and 0.56 in data set [2] (setting [6]).

Turning to `CNC(=O)c1ccccc1` [standard 3, N-methyl benzamide], the “Lit. Log P” value in data set [3] (setting [8]), in data set [3] (setting [9]) and in data set [3] (setting [10]) was 0.86 throughout. For the same molecule, the chromatographic logP in data set [1] was 0.96; in data set [2] (setting [7]), 0.75; in data set [2] (setting [6]), 0.68.

In the case of `OCc1ccccc1` [standard 4, benzyl alcohol], the chromatographic logP in data set [1] is 0.96; in data set [2] (setting [6]), 0.98.

As to `CC(=O)c1ccccc1` [standard 6, acetophenone], the “Lit. Log P” value in data set [3] (setting [8]), in data set [3] (setting [9]) and in data set [3] (setting [10]) was 2.13 in each case. Moreover, the chromatographic logP in data set [1] was 2.54; in data set [2] (setting [7]), 2.22; in data set [2] (setting [6]), 1.94.

Regarding `Brc1ccccc1` [standard 7, bromobenzene], the figures for the chromatographic logP in data set [4] (Log P calc. by slope), in data set [4] (setting [11]) and in data set [5] were 3.5, 3.44 and 3.23, respectively.

On to `Cc1ccc(Cl)cc1` [standard 8, p-chloro toluene], for which the values for the chromatographic logP in data set [4] (Log P calc. by slope), in data set [4] (setting [11]) and in data set [5] were 3.74, 3.74 and 3.57, respectively.

Turning to `CCOP(=S)(OCC)Oc1ccc([N+](=O)[O-])cc1` [standard 9, diethyl parathion], in data set [1], the “Isocratic Log P” value amounted to 3.39.

For the molecule `c1ccc(-c2ccccc2)cc1` [standard 10, biphenyl], the chromatographic logP in data set [4] (setting [11]) is 4.07; in data set [5] it was 3.8. The “Log P calc. by slope” value in data set [2] (calculated from Log K (capacity factor) with exponential equation Y=0.6972e^1.5966X) was 3.98.

For the molecule `Cc1ccc2cc(C)ccc2c1` [standard 11, 2,6-dimethyl napthalene], the “Isocratic Log P” value in data set [1] turned out to be 4.49.

As for `c1ccc2cc3ccccc3cc2c1` [standard 12, anthracene], the chromatographic logP is 4.27 in data set [4] (Log P calc. by slope) and 4.46 in data set [5].

In the case of `c1ccc(Sc2ccccc2)cc1` [standard 13, phenyl sulfide], the “Lit. Log P” value in data set [3] (setting [8]), in data set [3] (setting [9]) and in data set [3] (setting [10]) was 4.45 in each case. Moreover, the chromatographic logP in data set [1] is 4.31; in data set [2] (setting [7]), 4.17; in data set [2] (setting [6]) it was 4.33.

As to `CCCN(CCC)c1c([N+](=O)[O-])cc(C(F)(F)F)cc1[N+](=O)[O-]` [standard 14, trifluralin], the chromatographic logP was 4.57 in data set [4] (Log P calc. by slope), 4.88 in data set [4] (setting [11]) and 5 in data set [5].

On to `COc1ccc(C(c2ccc(OC)cc2)C(Cl)(Cl)Cl)cc1` [standard 15, methoxychlor], for which the chromatographic logP in data set [4] (Log P calc. by slope) is 4.37; in data set [4] (setting [11]), 4.61; in data set [5], 4.26.

On to `ClC(Cl)=C(c1ccc(Cl)cc1)c1ccc(Cl)cc1` [standard 16, DDE], for which the “Isocratic Log P” value in data set [1] is given as 6.28.

The values above are taken from US6524863B1, “High throughput HPLC method for determining Log P values” (Scynexis Chemistry & Automation, Inc., priority 1999, dated 2003).
